Values after ≈ are worked out from the molar mass of the structure shown.

The conditions of the data set: buffer; pH 7.4; 200.0 µM.
As a reminder, the kinetic solubility is solubility judged after dilution from a stock solution rather than from solid. On to `O=C(NCCN1CCOCC1)c1cc([N+](=O)[O-])cc([N+](=O)[O-])c1`, for which the solubility (kinetic) is more than 48.6 µg/mL.

For `O=C(NC(=S)NCc1ccccc1)c1cccs1`, the solubility (kinetic) worked out at 1.4 µg/mL (≈ 5.07 µM).

`O=C(O)c1ccc(Cn2ccc3ccccc32)o1` had a solubility (kinetic) of more than 36.2 µg/mL.

As to `CCOC(=O)c1ccccc1CN1C(=O)c2ccccc2S1(=O)=O`, the kinetic solubility was less than 0.7 µg/mL.

Compound `COc1ccccc1OCC(=O)Nc1ccc(S(=O)(=O)N(C)c2ccccc2)cc1` returned a solubility (kinetic) of 2.4 µg/mL (≈ 5.63 µM).

`CSc1ccc(C(=S)N2CCCCCC2)cc1` registered a kinetic solubility of 12.9 µg/mL (≈ 48.6 µM).

Turning to `O=c1[nH]cnc(O)c1C(c1ccc(F)cc1)c1c(O)nc[nH]c1=O`, the solubility (kinetic) was more than 49.5 µg/mL.

`CC(=O)c1cnc(-c2ccccc2Cl)s1` registered a kinetic solubility of 8 µg/mL (≈ 33.7 µM).

With `CCOc1ccc(NC(=S)N(CCc2ccncc2)C(C)C)cc1`, the solubility (kinetic) came out at 48.8 µg/mL (≈ 142 µM).

Turning to `Cc1ccnc(Cc2ccccc2)n1`, the kinetic solubility stood at 18.5 µg/mL (≈ 100 µM).

`NS(=O)(=O)c1ccc(NS(=O)(=O)c2ccc(Br)cc2)cc1` displayed a kinetic solubility of more than 58.7 µg/mL.

As for `CC(C)[C@H](NS(=O)(=O)c1ccccc1)C(=O)OCC(=O)NC(=O)NC1CCCCC1`, the kinetic solubility is more than 65.9 µg/mL.

In turn, `O=C(Nc1nc2cc3c(cc2s1)OCO3)C1CCCCC1` had a kinetic solubility of less than 0.3 µg/mL.

Compound `COc1cccc(OC)c1C(=O)OCC(=O)N(C)c1ccccc1` came in with a kinetic solubility of 43 µg/mL (≈ 131 µM).

On to `N#Cc1ccc(C(=O)OCC(=O)N2CCN(C(=O)c3ccco3)CC2)cc1`, for which the solubility (kinetic) was more than 55.1 µg/mL.

Compound `Nc1nc2nc(-c3ccccc3)cc(C(F)(F)F)c2s1` showed a solubility (kinetic) of 4.1 µg/mL (≈ 13.9 µM).

Consider `Cc1cc(C)n2nc(SCC(=O)N3CCN(c4ccccc4)CC3)nc2n1`, for which the solubility (kinetic) was more than 57.4 µg/mL.

For the compound `COc1ccc(NC(=O)COC(=O)c2ccc3ccccc3n2)c(OC)c1`, the solubility (kinetic) is 3 µg/mL (≈ 8.19 µM).

For the compound `COc1ccc(NS(=O)(=O)c2cccc(C(=O)O)c2)cc1S(=O)(=O)N1CCCCC1`, the solubility (kinetic) is more than 68.2 µg/mL.

As for `O=C(COC(=O)c1ccc(S(=O)(=O)N2CCCC2)cc1)NCCc1ccc(F)cc1`, the kinetic solubility stood at 6.2 µg/mL (≈ 14.3 µM).

The compound `O=C1Cc2ccccc2C(=O)N1Cc1cccc(Cl)c1` had a solubility (kinetic) of 12.2 µg/mL (≈ 42.7 µM).

As for `COc1ccccc1N(CC(=O)Nc1ccccc1C(F)(F)F)S(=O)(=O)c1cccs1`, the kinetic solubility was 9 µg/mL (≈ 19.1 µM). The solubility kinetic values of the last two compounds are within 1.5-fold of each other.

On to `CCOC(=O)CCCNC(=O)CCNC(=O)c1ccc(OCCC(C)C)cc1`, for which the kinetic solubility is more than 58.9 µg/mL.

With `CCc1nc(NCCO)c(C#N)c2c1CCCC2`, the kinetic solubility was determined as 35.5 µg/mL (≈ 145 µM).

For `CCCCOc1ccc(OCCNC(=O)c2ccco2)cc1`, the solubility (kinetic) is 22.5 µg/mL (≈ 74.2 µM).

`O=C(NCCO)Nc1ccc(Cl)cc1`: the kinetic solubility is 29 µg/mL (≈ 135 µM).

In turn, `CCN(C(=S)NCCOC)c1cccc2ccccc12` came in with a solubility (kinetic) of 12.9 µg/mL (≈ 44.7 µM). This solubility kinetic is about 2.2-fold lower than that of the compound before.

Take `OC1CCCN(CC(O)c2ccccc2)C1` (stereo not drawn): the solubility (kinetic) is 25 µg/mL (≈ 113 µM).

With `O=C1NC(=Nc2ccccc2Br)SC1(CO)CO`, the solubility (kinetic) is more than 49.7 µg/mL.

Compound `CCCS(=O)(=O)c1ccc(COC(=O)c2ccc(NC(C)=O)cc2)cc1` had a kinetic solubility of 25.5 µg/mL (≈ 67.9 µM).

`O=C(COC(=O)Cc1ccccc1F)Nc1ccc(F)cc1F` displayed a kinetic solubility of 47.9 µg/mL (≈ 148 µM).

Consider `NS(=O)(=O)c1ccc(NC(=O)/C=C/c2cccc(Cl)c2)cc1`, for which the kinetic solubility came out at 1.4 µg/mL (≈ 4.16 µM).

As for `CN(C(=O)c1ccccc1-c1ccccc1C(=O)O)c1ccccc1`, the kinetic solubility was 44.5 µg/mL (≈ 134 µM).

Compound `O=C(CSc1nccn1-c1cccc(F)c1)NC1CCCC1` yielded a solubility (kinetic) of more than 47.9 µg/mL.

Take `CCOc1cc(N2CCOCC2)c(OCC)cc1NC(=O)C(C)(C)C`: the solubility (kinetic) was more than 52.6 µg/mL.

In the case of `O=S(=O)(Nc1ccc2c(c1)OCCO2)c1ccc(F)c(F)c1`, the solubility (kinetic) was more than 49.1 µg/mL.

For the compound `CCOC(=O)c1c(NC(=O)c2cc(C)on2)c2cc([N+](=O)[O-])ccc2n1C`, the solubility (kinetic) was found to be 1.6 µg/mL (≈ 4.3 µM).

As for `CCn1cc(CCC(=O)NCCc2ccccc2)c2ccccc21`, the kinetic solubility came to 32.8 µg/mL (≈ 102 µM).

In the case of `O=[N+]([O-])c1ccccc1O[C@@H]1O[C@H](CO)[C@H](O)[C@H](O)[C@H]1O`, the kinetic solubility was more than 45.2 µg/mL.

`Cc1ccc(C(=O)N2CCN(c3ccc([N+](=O)[O-])cc3)CC2)o1` showed a solubility (kinetic) of 40.2 µg/mL (≈ 127 µM).

`COc1cc(OC)cc(C(=O)NCC(=O)OCC(=O)NC(C)CCc2ccccc2)c1` (stereo not drawn) yielded a solubility (kinetic) of more than 64.3 µg/mL.

In turn, `CCc1ccc(/C=C2/SC(N3CCOCC3)=NC2=O)cc1` had a kinetic solubility of 26.5 µg/mL (≈ 87.6 µM).

With `CN(CC(=O)Nc1ccc(SC(F)F)cc1)C1CCCCC1`, the solubility (kinetic) worked out at 32.2 µg/mL (≈ 98 µM). The solubility kinetic values of the last two compounds are within 1.5-fold of each other.

`COc1ccccc1Cn1c(=S)[nH]c2ccc(F)cc2c1=O` displayed a kinetic solubility of 1.6 µg/mL (≈ 5.06 µM).

As to `NC(=O)c1ccc(Oc2ccc3c(c2)CCC3)c([N+](=O)[O-])c1`, the solubility (kinetic) was 5.4 µg/mL (≈ 18.1 µM). Compared with the last compound, the solubility kinetic is about 3.4-fold higher.

Compound `CC(=O)Oc1ccc(C(=O)Nc2cccnc2)cc1` had a solubility (kinetic) of more than 38.4 µg/mL.

On to `O=C(O)c1cccnc1Sc1ccc(Br)cc1`, for which the kinetic solubility is more than 46.5 µg/mL.

For `O=C(c1cc2ccccc2o1)N1CCN(c2ccccn2)CC1`, the kinetic solubility stood at 11.4 µg/mL (≈ 37.1 µM).

In the case of `O=C(COc1ccc2c(c1)OCO2)Nc1cccc(F)c1`, the kinetic solubility came out at 21.5 µg/mL (≈ 74.3 µM).

On to `CN/C(=C/[N+](=O)[O-])NCCSCc1ccc(CN(C)C)o1.Cl`, for which the solubility (kinetic) turned out to be 52.4 µg/mL.

`O=C(O)c1cc(-c2cccc3ccccc23)nc2ccccc12` displayed a kinetic solubility of more than 44.9 µg/mL.

The compound `COc1ccc(C(=O)Nc2cc(C)on2)c(OC)c1` displayed a solubility (kinetic) of 21.4 µg/mL (≈ 81.6 µM).

In turn, `CCN1CC(CN(C)Cc2nc(-c3ccco3)oc2C)CC1=O` (stereo not drawn) returned a solubility (kinetic) of more than 47.6 µg/mL.

In turn, `O=C(NC(=O)c1c(F)cccc1F)Nc1ccccc1SC(F)F` yielded a solubility (kinetic) of less than 0.4 µg/mL.

Consider `N#CCSc1nc2ccccc2c(=O)n1CCCC(=O)NCC1CCCO1` (stereo not drawn), for which the kinetic solubility was found to be 47.7 µg/mL (≈ 123 µM).

`Cc1c(C(=O)N(C)Cc2ccc(OC(F)F)cc2)oc2ccccc12` gave a kinetic solubility of 6.5 µg/mL (≈ 18.8 µM).

The compound `NS(=O)(=O)c1ccc(OC(=O)CNC(=O)OCc2ccccc2)cc1` gave a solubility (kinetic) of 34.3 µg/mL (≈ 94.1 µM). Compared with the last compound, the solubility kinetic is about 5.3-fold higher.

`OCCOCCOc1cccc2[nH]ccc12` registered a solubility (kinetic) of 25.9 µg/mL (≈ 117 µM).

`CCOC(=O)CN1CCS(=O)(=O)CC1`: the solubility (kinetic) was more than 33.2 µg/mL.

Turning to `COc1ccc(C(=O)N[C@H](C(=O)NC2CCCCC2)C(C)C)cc1`, the kinetic solubility came out at 5.1 µg/mL (≈ 15.3 µM).

For the compound `CC(c1ccccc1)C1CC(=O)N(c2ccccc2)C1=O` (stereo not drawn), the kinetic solubility was determined as 41.1 µg/mL (≈ 147 µM).

`CC1CCN(C(=O)CN2C(=O)NC(C)(c3ccc4ccccc4c3)C2=O)CC1` (stereo not drawn) displayed a kinetic solubility of 5.9 µg/mL (≈ 15.5 µM).

As to `Cc1cccc(NC(=S)N(C)C2CCCCC2)c1`, the kinetic solubility was 30.1 µg/mL (≈ 115 µM).

Compound `COc1ccc(C2CC(=O)NC(=O)C2)cc1` had a solubility (kinetic) of 22.3 µg/mL (≈ 102 µM).

In turn, `O=C(CN1CCN(c2ccc(O)cc2)CC1)Nc1ccc(S(=O)(=O)N2CCCC2)cc1` displayed a solubility (kinetic) of 44.6 µg/mL (≈ 100 µM).

`COc1ccc(-c2cn(-c3ccccc3)c(=S)[nH]2)cc1OC` showed a kinetic solubility of 22.6 µg/mL (≈ 72.3 µM).

With `CC1CCCN(S(=O)(=O)c2cccc(C(=O)OCC(=O)N(C)Cc3c(F)cccc3Cl)c2)C1` (stereo not drawn), the solubility (kinetic) came to 8.8 µg/mL (≈ 17.7 µM).

On to `C=CCc1cccc2cc(C(=O)NCCOC)c(=O)oc12`, for which the solubility (kinetic) amounted to 41.5 µg/mL (≈ 144 µM). This solubility kinetic lies about 4.7-fold higher than the previous one.

The compound `Cc1onc(-c2c(Cl)cccc2Cl)c1C(=O)N(C)Cc1ccccc1` displayed a kinetic solubility of 40.9 µg/mL (≈ 109 µM). The solubility kinetic values of the last two compounds are within 1.5-fold of each other.

With `Cc1ccc2c(C)c(C(=O)NCCN3CCCC(O)C3)oc2c1C` (stereo not drawn), the solubility (kinetic) worked out at 42.3 µg/mL (≈ 128 µM).

Turning to `O=C(NC1CC1)C1CCN(c2ncccn2)CC1`, the solubility (kinetic) is more than 36.9 µg/mL.

Turning to `COc1ccc(C(=O)CSc2nccn2C)cc1`, the solubility (kinetic) came out at 35.1 µg/mL (≈ 134 µM).

As for `COc1ccccc1Oc1ccccc1[N+](=O)[O-]`, the kinetic solubility came to 25.1 µg/mL (≈ 102 µM).

The values are drawn from PubChem BioAssay AID1996.
